Data published in PMC10649961, “Novel Mitochondria-Targeted Amphiphilic Aminophosphonium Salts and Lipids Nanoparticles: Synthesis, Antitumor Activity and Toxicity” (Nanomaterials, 2023).
Read-outs that look alike come from different tables or passages of the source. Where a SMILES comes first, the peptide text is derived from it. [ ]: non-standard residue; d: D form. Orn = NCCC[C@H](N)C(=O)O

Key:
SK-OV-3 [1] = assay: cells; details: Homo sapiens, SK-OV-3, 48 h, read-out: Cytotoxic Effects (IC50)
MRSA-2 = assay: Antimicrobial activity, serial microdilutions, MRSA-2; assay type: cell-based, S. aureus; details: Staphylococcus aureus
Procedure: (§1) The antimicrobial activity of test compounds was determined by serial microdilutions in 96-well plates using Mueller-Hinton broth for bacterial culture and Sabouraud broth for yeast culture. Cultures of Gram-positive bacteria were used in the experiment: Staphylococcus aureus ATCC 6538 P FDA 209P, Bacillus cereus ATCC 10702 NCTC 8035, Enterococcus faecalis ATCC 29212; Gram-negative bacteria: Escherichia coli ATCC 25922, Pseudomonas aeruginosa ATCC 9027; and yeast: Candida albicans ATCC 10231, purchased from the State Collection of Pathogenic Microorganisms and Cell Cultures “SCPM-Obolensk” (Obolensk, Russia). Methicillin-resistant strains of S. aureus (MRSA) were isolated from patients with chronic tonsillitis (MRSA-1) and sinusitis (MRSA-2) in the bacteriological laboratory of the Republican Clinical Hospital (Kazan, Russia). The experiments were carried out in triplicate.

MCF-7 [2] = test system: MCF-7
PANC-1 [3] = assay: cells; details: Homo sapiens, PANC-1, 48 h, read-out: Cytotoxic Effects (IC50)
A549 [4] = assay: cells; details: Homo sapiens, A549, 48 h, read-out: Cytotoxic Effects (IC50)
[5] = test system: Candida albicans ATCC 10231; assay: Antimicrobial activity, serial microdilutions, Ca; assay type: cell-based; parameters: key to Minimum Inhibitory Concentration (MIC) / Minimum bactericidal and fungicidal concentrations (MBC, MFC): – means non-active; details: Ca
Procedure: as §1

HuTu 80 [6] = assay: cells; details: Homo sapiens, HuTu80, 48 h, read-out: Cytotoxic Effects (IC50)
M-HeLa [7] = test system: M-HeLa
[8] = test system: Escherichia coli ATCC 25922; assay: Antimicrobial activity, serial microdilutions, Ec; assay type: cell-based; parameters: key to Minimum Inhibitory Concentration (MIC) / Minimum bactericidal and fungicidal concentrations (MBC, MFC): – means non-active
Procedure: as §1

[9] = test system: Enterococcus faecalis ATCC 29212; assay: Antimicrobial activity, serial microdilutions, Ef; assay type: cell-based; details: Enterococcus faecalis
Procedure: as §1

MCF-7 [10] = assay: cells; details: Homo sapiens, MCF7, 48 h, read-out: Cytotoxic Effects (IC50)
MRSA-1 = assay: Antimicrobial activity, serial microdilutions, MRSA-1; assay type: cell-based, S. aureus; parameters: key to Minimum Inhibitory Concentration (MIC) / Minimum bactericidal and fungicidal concentrations (MBC, MFC): – means non-active
Procedure: as §1

DU-145 [11] = assay: cells; details: Homo sapiens, DU-145, 48 h, read-out: Cytotoxic Effects (IC50), DU-145, MTT assay, 48 h
[12] = test system: Bacillus cereus ATCC 10702 NCTC 8035; assay: Antimicrobial activity, serial microdilutions, Bc; assay type: cell-based; parameters: key to Minimum bactericidal and fungicidal concentrations (MBC, MFC): – means non-active; details: Bc
Procedure: as §1

[13] = test system: Staphylococcus aureus ATCC 6538 P FDA 209P; assay: Antimicrobial activity, serial microdilutions, Sa; assay type: cell-based; details: Staphylococcus aureus
Procedure: as §1

DU-145 [14] = test system: DU-145
HuTu 80 [15] = test system: HuTu 80
PANC-1 [16] = test system: PANC-1
mice of the CD-1 line = assay: In vivo acute toxicity, single intraperitoneal injection; details: for onset of animal death after administration: CD-1 mice, i.p., doses of LD100; for acute toxicity class: according to the classification [105], parenteral administration
Procedure: (§2) The study of acute toxicity was performed on males of outbred white mice of the CD-1 line at the age of 2–3 months, weighing 20–30 g. The total number of mice participating in the experiment was 300. Mice were obtained from the Research and Production Enterprise Laboratory Animal Farm based at the Branch of Shemyakin and Ovchinnikov Institute of Bioorganic Chemistry of the Russian Academy of Sciences (Pushchino, Russia). The animals were kept in accordance with in standard conditions in a vivarium with 12 h of daylight and free access to food and water. The animals were fed complete feed made according to specifications (protein 22%, fiber 4% max., fat 5% max, ash 9% max, humidity 13.5% max, caloric value 295 kcal/100 g). The studies were conducted with a single parenteral–intraperitoneal (intra-peritoneal) injection, according to the method.
(§3) The substances were introduced in a sterile saline DMSO (40% vol.) solution. Solutions of the substances were prepared immediately before administration. The total volume of the injected liquid was 0.1 mL/10 g of animal weight. As a control, a group of mice was administered under similar conditions an equivalent amount (0.1 mL/10 g, or 10 mL/kg) of a solvent—40% DMSO on sterile saline solution. The substances were administered in doses ranging from 1 to 100 mg/kg; there were six animals in each group. To assess acute toxicity, the animals were monitored 14 days after administration of the substance, assessing their general condition and recording deaths.
(§4) The study of the acute toxicity parameters of six aminophosphonium salts 4a, 4b, 4d, 5a, 5b, and 6b was performed on male outbreed white mice of the CD-1 line. Acute toxicity was determined with a single parenteral (intraperitoneal) administration in sterile saline/DMSO (40% vol.) solution at doses from 1 to 100 mg/kg. To assess acute toxicity, the animals were monitored for 14 days after the introduction of substances, assessing their general condition and recording deaths. Next, lethal doses LD50, LD0, LD16, LD84, and LD100 were calculated using the Probit analysis method. LD0, LD16, LD84, and LD100 are given in Supplementary Material (Table S1).

[17] = as above; parameters: species or system mice; details: male, CD-1, mouse, in vivo, ip, male CD-1 mice, single intraperitoneal administration, 14 days, Probit analysis
Procedure: as §2, §3, §4

T98G [18] = assay: cells; details: Homo sapiens, 48 h, read-out: Cytotoxic Effects (IC50)
M-HeLa [19] = assay: cells; details: Homo sapiens, 48 h, read-out: Cytotoxic Effects (IC50)
PC3 [20] = test system: PC3
SK-OV-3 [21] = test system: SK-OV-3
Hep G2 [22] = test system: Hep G2
[23] = test system: Pseudomonas aeruginosa ATCC 9027; assay: Antimicrobial activity, serial microdilutions, Pa; assay type: cell-based; parameters: key to Minimum Inhibitory Concentration (MIC) / Minimum bactericidal and fungicidal concentrations (MBC, MFC): – means non-active
Procedure: as §1

PC3 [24] = assay: cells; details: Homo sapiens, PC-3, 48 h, read-out: Cytotoxic Effects (IC50), PC3, MTT assay, 48 h
T98G [25] = test system: T98G
Hep G2 [26] = assay: cells; details: Homo sapiens, HepG2, 48 h, read-out: Cytotoxic Effects (IC50)
A549 [27] = test system: A549
[28] = test system: human volunteer donor erythrocytes; assay: Hemolytic assay; assay type: cell-based; details: hemolysis in 50% of human erythrocytes, 1 h, 37 °C
Procedure: The hemolytic activity of Aminophosphonium Salts was assessed by comparing the optical density of a solution containing the test compound with the optical density of blood at 100% hemolysis. Healthy human volunteer donor erythrocytes were used as the object of the study. Red blood cells with EDTA (1.8 mg/mL) were washed three times with saline (0.9% NaCl), centrifuged for 10 min at 800× g rpm, and resuspended in saline (0.9% NaCl) to a concentration of 10%. The tested concentrations (0.1–100 μM) were prepared in physiological solution (0.9% NaCl) (with the addition of 5% DMSO). Compounds at the appropriate dilution (450 μL) were added to 50 μL of a 10% red blood cell suspension. Samples were incubated for 1 h at 37 °C and centrifuged for 10 min at 2000 rpm. The release of hemoglobin was controlled by measuring the optical density of the supernatant on an InvitroLogic microplate reader at λ = 540 nm. A control sample corresponding to zero hemolysis (blank experiment) was prepared by adding 50 μL of a 10% red blood cell suspension to 450 μL of saline (0.9% NaCl). A control sample corresponding to 100% hemolysis was prepared by adding 50 μL of a 10% red blood cell suspension to 450 μL of distilled water. Blood was taken at the Clinic of the Federal Research Center “Kazan Scientific Center of the Russian Academy of Sciences” from healthy donors with their personal consent.

[29] = read-out: Minimum Inhibitory Concentration (MIC)
[30] = read-out: Minimum bactericidal and fungicidal concentrations (MBC, MFC)
[31] = reference normal cell line not marked at the place (ns cells)
[32] = calculated relative to the cell line Chang liver (b)
[33] = calculated relative to the cell line WI38 (a)

`CCCCCC[P+](N(CC)CC)(N(CC)CC)N(CC)CC` [4a, Tris(diethylamino)(hexyl)phosphonium iodide] showed an IC50 (SK-OV-3 [1]) of 46.6 ± 3.5 µM, an MIC (MRSA-2; [29]) of 125 ± 11 µM and an MBC (MRSA-2; [30]) of 125 ± 10 µM. The “selectivity index (SI)” value (MCF-7 [2]; [31]) was “ns (ns—no selectivity)”, the IC50 (PANC-1 [3]) was 16.1 ± 1.3 µM and the IC50 (A549 [4]) was 64.1 ± 4.5 µM. For the same compound, the “Minimum Inhibitory Concentration (MIC)” value [5] was “–”, the “Minimum bactericidal and fungicidal concentrations (MBC, MFC)” value [5] was “–” and the IC50 (HuTu 80 [6]) was 11.4 ± 0.9 µM. For the same compound, the “selectivity index (SI)” value (M-HeLa [7]; [31]) was “ns (ns—no selectivity)”, the “Minimum Inhibitory Concentration (MIC)” value [8] was “–” and the “Minimum bactericidal and fungicidal concentrations (MBC, MFC)” value [8] was “–”. It also gave an MIC ([9]; ATCC29212, read-out: Minimum Inhibitory Concentration (MIC)) of 250 ± 21 µM, an MBC ([9]; ATCC29212, read-out: Minimum bactericidal and fungicidal concentrations (MBC, MFC)) of 500 ± 46 µM and an IC50 (MCF-7 [10]) of 26 ± 1.8 µM. For the same compound, the “Minimum bactericidal and fungicidal concentrations (MBC, MFC)” value (MRSA-1) was “–”, the MIC (MRSA-1; Staphylococcus aureus, read-out: Minimum Inhibitory Concentration (MIC)) was 125 ± 10 µM and the IC50 (DU-145 [11]) was 26.2 ± 1.9 µM. For the same compound, the MIC ([12]; Bacillus cereus, read-out: Minimum Inhibitory Concentration (MIC)) was 62.5 ± 5.3 µM, the “Minimum bactericidal and fungicidal concentrations (MBC, MFC)” value [12] was “–” and the MIC [13, 29] was 62.5 ± 5.2 µM. For the same compound, the MBC [13, 30] was 250 ± 20 µM, the “selectivity index (SI)” value (DU-145 [14]; [31]) was “ns (ns—no selectivity)” and the “selectivity index (SI)” value (HuTu 80 [15]; [32]) was 1.6. The “selectivity index (SI)” value (PANC-1 [16]; [32]) was 1.1, the “onset of animal death after administration” value (mice of the CD-1 line) was 1 to 2 h and the acute toxicity class (mice of the CD-1 line) was “moderately toxic”. For the same compound, the LD50 at 14 days [17] was 31.7 mg/kg, the IC50 (T98G [18]) was 57.4 ± 4 µM and the IC50 (M-HeLa [19]) was 52.4 ± 3.7 µM. The “selectivity index (SI)” value (PC3 [20]; [31]) was “ns (ns—no selectivity)”, the “selectivity index (SI)” value (SK-OV-3 [21]; [31]) was “ns (ns—no selectivity)” and the “selectivity index (SI)” value (Hep G2 [22]; [31]) was “ns (ns—no selectivity)”. The “Minimum Inhibitory Concentration (MIC)” value [23] was “–”, the “Minimum bactericidal and fungicidal concentrations (MBC, MFC)” value [23] was “–” and the IC50 (PC3 [24]) was 44 ± 3.1 µM. For the same compound, the “selectivity index (SI)” value (T98G [25]; [31]) was “ns (ns—no selectivity)”, the IC50 (Hep G2 [26]) was 46.6 ± 3.3 µM and the “selectivity index (SI)” value (A549 [27]; [31]) was “ns (ns—no selectivity)”.
For `CCCCCC[P+](c1ccccc1)(N(CC)CC)N(CC)CC` [5a, Bis(diethylamino)(hexyl)(phenyl)phosphonium iodide], the IC50 (SK-OV-3 [1]) was 20 ± 1.6 µM, the “selectivity index (SI)” value (MCF-7 [2]; [33]) was 3.7 and the IC50 (PANC-1 [3]) was 17.8 ± 1.4 µM. For the same compound, the IC50 (A549 [4]) was 17 ± 1.3 µM, the IC50 (HuTu 80 [6]) was 0.3 ± 0.02 µM and the “selectivity index (SI)” value (M-HeLa [7]; [33]) was 2.7. The IC50 (MCF-7 [10]) was 17.1 ± 1.3 µM, the IC50 (DU-145 [11]) was 6.3 ± 0.5 µM and the “selectivity index (SI)” value (DU-145 [14]; [33]) was 10. The “selectivity index (SI)” value (HuTu 80 [15]; [33]) was 210, the “times less toxic toward the normal WI38 cell line compared with doxorubicin” value (WI38) was 157 times and the “selectivity index (SI)” value (PANC-1 [16]; [33]) was 3.5. The “onset of animal death after administration” value (mice of the CD-1 line) was 1 to 2 h, the acute toxicity class (mice of the CD-1 line) was “moderately toxic” and the LD50 at 14 days [17] was 44.7 mg/kg. For the same compound, the IC50 (T98G [18]) was 30.3 ± 2.1 µM, the IC50 (M-HeLa [19]) was 23 ± 1.6 µM and the “selectivity index (SI)” value (PC3 [20]; [33]) was 13. For the same compound, the “selectivity index (SI)” value (SK-OV-3 [21]; [33]) was 3.2, the “selectivity index (SI)” value (Hep G2 [22]; [33]) was 3.8 and the IC50 (PC3 [24]) was 4.9 ± 0.4 µM. For the same compound, the “selectivity index (SI)” value (T98G [25]; [33]) was 3.7, the IC50 (Hep G2 [26]) was 16.5 ± 1.3 µM and the “selectivity index (SI)” value (A549 [27]; [33]) was 3.7.
Compound `CC(C)C[C@@H]1NC(=O)[C@H](CCCN)NC(=O)[C@H](C(C)C)NC(=O)[C@@H]2CCCN2C(=O)[C@@H](Cc2ccccc2)NC(=O)[C@H](CC(C)C)NC(=O)[C@H](CCCN)NC(=O)[C@H](C(C)C)NC(=O)[C@@H]2CCCN2C(=O)[C@@H](Cc2ccccc2)NC1=O` [Gramicidin S, reference compound] (cyclo(L[dF]PV[Orn]L[dF]PV[Orn])) has an HC50 [28] of 9.4 ± 0.8 µM.
